One block for each compound: values may come before it.
Key:
[1] = Bioavailability assay (mouse pharmacokinetic study); type: in vivo; conditions: IV 1 mg/kg, PO 30 mg/kg (Compound A PO 10 mg/kg)
[2] = biological target: T1, IRE1a (Homo sapiens, UniProt O75460); assay: In vitro FRET assay (IRE1a cleavage of XBP1 RNA probe); type: biochemical; set-up: purchased SignalChem; conditions: IRE1a 2 nM, tested as the salt named
Protocol: Selected compounds were serially diluted with DMSO in a non-binding black 384-well plate for a total of 15 ul in each well. 2 ul of the serially diluted compound or DMSO control were then added to new wells containing 98 ul of 1×CAB, for a total volume of 100 ul, 10 ul of which were then transferred to wells of a new plate. 5 ul of the diluted IRE1a was then added to each well. 5 ul of a […] XBP1 RNA probe was then added to each well.
Each probe contained a 5′ 6-FAM modification and a 3′ IOWA Black FQ modification.
A second FRET assay was performed to assess ATP-mediated inhibition. In this case, compounds and IRE1a were prepared and combined as discussed above, with the addition of ATP up to 1 mM final concentration. This mixture was incubated at room temperature for 60 minutes and then 5 ul of 400 nM XBP1 wildtype or mutant RNA probe was added.

[3] = biological target: T1, IRE1a; assay: IRE1a Endoribonuclease Nanoluciferase Assay (XBP1 luciferase reporter in 293T cells); type: cell-based; set-up: endogenous in cells; host or cells: 293T; conditions: XBP1 nanoluciferase reporter in 293T cells, ER stressor; tested as the salt named
[4] = test system: IRE1a-mediated XBP1 splicing; assay: Assay for target engagement in pancreas and salivary gland (RT-qPCR of XBP1 splicing); type: in vivo; conditions: mice, 30 mg/kg oral gavage, 6 hours, compared to control and Compound B
Protocol: Mice (n=3 per group) were orally gavaged with 30 mg/kg vehicle control or IRE1 inhibitors dissolved in H2O. After 6 hours, mice were euthanized and pancreas and salivary gland tissues were isolated, snap frozen on dry ice, and used for subsequent RT-qPCR analysis of beta-actin, XBP1s and total XBP1. Gene expression was evaluated by quantitative PCR for XBP1s and total XBP1 transcripts using the 2^(−ΔCT) method for calculating normalized gene expression. Gene expression levels were normalized to Actb transcripts. XBP1 splicing is calculated as XBP1s expression divided by total XBP1 expression.

[5] = Metabolic assays of N,N-dimethyl compounds; type: in vitro ADME; conditions: data not shown
[6] = test system: 293T cells; assay: Growth assay (cytotoxicity); type: cell-based, human; conditions: 2 day incubation
Protocol: A growth assay was performed to evaluate the compounds disclosed herein for cytotoxicity. […] 133.3 uL cDMEM was added to wells 1, 2, 3, 5, 6, and 7 in rows A, C, E and G of the dilution plate. Compounds were serially diluted leftwards in threefold dilutions (66.7 uL into 133.3 uL cDMEM). 20 μL of each dilution was transferred in duplicate (duplicates in vertical paired wells) to the cells plated in the 96-well plate shown in Table 5, to the total concentrations shown below. 200 uL cDMEM was added to media wells (wells G5-H8). The plate was then placed in a humidified chamber for a 2 day incubation, and then photographed (media was more yellow in wells with potent cell growth).

[7] = test system: IRE1a/XBP1 pathway; assay: Assay for inhibition of endogenous XBP1 splicing in 293T cells with tunicamycin; type: cell-based, human; conditions: XBP1 splicing by qPCR
Protocol: Gene expression was evaluated by quantitative PCR for XBP1s and total XBP1 transcripts using the 2^(−ΔCT) method for calculating normalized gene expression. Gene expression levels were normalized to ACTB transcripts. XBP1 splicing was calculated as actin-normalized XBP1s expression divided by actin-normalized total XBP1 expression.

[8] = biological target: T1, IRE1a; assay: IRE1a phosphorylation inhibition assay (immunoblot, tunicamycin-treated 293T cells); type: cell-based; set-up: endogenous in cells; host or cells: 293T; conditions: human 293T cells
Protocol: Inhibition of ER stress-induced IRE1a phosphorylation and XBP1s protein accumulation in human 293T cells was assessed. Immunoblot analysis was performed in human 293T cells lysates obtained from cells after exposure to the chemical ER stress-inducing agent tunicamycin, and optional treatment with Compound C. Lysates were probed with antibodies recognizing IRE1a, phosphorylated IRE1a, XBP1, or TATA-binding protein (TBP). TBP was blotted as a protein loading control. […] 20 nM was sufficient to reduce XBP1s protein levels below the limit of detection in this assay.

T1 sequence (O75460 19-977): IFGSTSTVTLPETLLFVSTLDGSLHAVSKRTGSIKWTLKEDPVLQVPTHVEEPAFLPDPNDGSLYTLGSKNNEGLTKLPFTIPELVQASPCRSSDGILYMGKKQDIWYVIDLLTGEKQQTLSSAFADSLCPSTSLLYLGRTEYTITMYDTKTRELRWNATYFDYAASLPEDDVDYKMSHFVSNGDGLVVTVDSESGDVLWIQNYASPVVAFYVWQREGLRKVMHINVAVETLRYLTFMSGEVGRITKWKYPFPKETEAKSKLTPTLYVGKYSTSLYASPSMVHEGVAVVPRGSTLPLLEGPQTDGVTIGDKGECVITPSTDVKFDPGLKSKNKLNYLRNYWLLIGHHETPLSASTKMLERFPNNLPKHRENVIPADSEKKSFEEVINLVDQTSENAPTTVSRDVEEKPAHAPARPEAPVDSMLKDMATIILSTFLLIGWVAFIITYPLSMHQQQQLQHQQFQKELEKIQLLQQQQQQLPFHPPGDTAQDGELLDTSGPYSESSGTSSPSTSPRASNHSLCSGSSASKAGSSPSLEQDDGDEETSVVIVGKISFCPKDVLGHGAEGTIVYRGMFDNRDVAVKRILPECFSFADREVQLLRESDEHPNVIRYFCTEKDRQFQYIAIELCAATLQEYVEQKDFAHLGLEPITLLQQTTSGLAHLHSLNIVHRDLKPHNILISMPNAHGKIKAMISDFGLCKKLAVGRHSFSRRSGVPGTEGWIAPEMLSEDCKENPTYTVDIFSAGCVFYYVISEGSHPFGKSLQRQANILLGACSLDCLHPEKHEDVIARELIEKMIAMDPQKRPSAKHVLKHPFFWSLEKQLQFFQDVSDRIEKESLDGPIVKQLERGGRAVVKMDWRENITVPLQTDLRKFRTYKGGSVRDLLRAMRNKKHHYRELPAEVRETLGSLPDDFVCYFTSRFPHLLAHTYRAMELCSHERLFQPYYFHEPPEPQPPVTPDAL

oral bioavailability [1]: 4%
SMILES: CCc1cc(-c2ccc(NS(=O)(=O)c3ccccc3Cl)nc2C)cc2cnc(N[C@H]3CC[C@H](N)CC3)nc12 [Compound A, N-(5-(2-(((1r,4r)-4-aminocyclohexyl)amino)-8-ethylquinazolin-6-yl)-6-methylpyridin-2-yl)-2-chlorobenzenesulfonamide]

IC50 [2]: < 5 nM
EC50 [3]: < 5 nM
SMILES: CCc1cc(-c2ccc(NS(=O)(=O)c3ccccc3Cl)c(F)c2)cc2cnc(N[C@H]3CCCNC3)nc12 [Compound 73, (S)-2-chloro-N-(4-(8-ethyl-2-(piperidin-3-ylamino)quinazolin-6-yl)-2-fluorophenyl) benzene-sulfonamide]

IC50 [2]: 5 to 50 nM
EC50 [3]: < 5 nM
SMILES: CCc1cc(-c2ccc(NS(=O)(=O)c3ccccc3Cl)c(F)c2)cc2cnc(N[C@H]3CC[C@H](NC(=O)[C@@H](N)C(C)C)CC3)nc12 [Compound 58, (S)-2-amino-N-((1r,4S)-4-((6-(4-((2-chlorophenyl)sulfonamido)-3-fluorophenyl)-8-ethylquinazolin-2-yl)amino)cyclohexyl)-3-methylbutanamide]

metabolic fate [5]: removal of the methyl groups
SMILES: CCc1cc(-c2ccc(NS(=O)(=O)c3ccccc3Cl)nc2OC)cc2cnc(NC3CCC(N(C)C)CC3)nc12 (stereo not shown) [Compound D]
suppression of IRE1a-mediated XBP1 splicing in pancreas and salivary gland [4]: potently suppressed

SMILES: CCc1cc(-c2cnc(NS(=O)(=O)c3ccccc3Cl)cn2)cc2cnc(N[C@H]3CC[C@H](N)CC3)nc12 [Compound 25, N-(5-(2-(((1r,4r)-4-aminocyclohexyl)amino)-8-ethylquinazolin-6-yl)pyrazin-2-yl)-2-chlorobenzene-sulfonamide]
IC50 [2]: < 5 nM
EC50 [3]: < 5 nM
% Growth at 0.185 uM ([6]; 0.185 uM): D (D: > 75% to ≤ 100%)
% Growth at 0.5556 uM ([6]; 0.5556 uM): D (D: > 75% to ≤ 100%)
% Growth at 1.667 uM ([6]; 1.667 uM): D (D: > 75% to ≤ 100%)
% Growth at 5 uM ([6]; 5 uM): D (D: > 75% to ≤ 100%)

metabolic fate [5]: removal of the methyl groups
concentration sufficient to reduce XBP1s protein levels below the limit of detection [8]: 20 nM
ER stress-induced IRE1a phosphorylation ([8]; pre-incubation with compound): strongly repressed
accumulation of XBP1s protein ([8]; pre-incubation with compound): completely abrogated
SMILES: CCc1cc(-c2ccc(NS(=O)(=O)c3ccccc3Cl)nc2C)cc2cnc(NC3CCC(N(C)C)CC3)nc12 (stereo not shown) [Compound C]
shift in potency between Compound A and Compound C [7]: approximately 3.6 ×
suppression of IRE1a-mediated XBP1 splicing in pancreas and salivary gland [4]: potently suppressed

IC50 [2]: < 5 nM
EC50 [3]: < 5 nM
SMILES: CCc1cc(-c2ccc(NS(=O)(=O)c3ccccc3Cl)nc2C)cc2cnc(N[C@H]3CC[C@H](N(C)C)CC3)nc12 [Compound 91, 2-chloro-N-(5-(2-(((1r,4r)-4-(dimethylamino)cyclohexyl)amino)-8-ethylquinazolin-6-yl)-6-methylpyridin-2-yl)benzenesulfonamide]

IC50 [2]: < 5 nM
EC50 [3]: < 5 nM
SMILES: CCc1cc(-c2ccc(NS(=O)(=O)c3ccccc3Cl)c(F)c2)cc2cnc(N[C@@H]3CC[C@H](N)[C@H](C)C3)nc12 [Compound 70, N-(4-(2-(((1R,3R,4S)-4-amino-3-methylcyclohexyl)amino)-8-ethylquinazolin-6-yl)-2-fluorophenyl)-2-chlorobenzene-sulfonamide]

IC50 [2]: < 5 nM
EC50 [3]: 100 to 10000 nM
SMILES: N[C@H]1CC[C@@H](Nc2ncc3cc(-c4ccc(NS(=O)(=O)c5ccccc5Cl)c(F)c4)ccc3n2)C1 [Compound 80]

— patent publication US12479818B2, “Treatment of fibrosis with IRE1 small molecule inhibitors” (Cornell University, priority 2019, dated 2025)
